{"source": "patent US7670785B2", "about": "“Polynucleotides and polypeptides associated with the development of rheumatoid arthritis” (Bristol-Myers Squibb Company, priority 2001, dated 2010)", "key": {"IL-1": {"test_system": "IL-1", "settings": "RA patients; cited from earlier work"}, "GBP-1 [1]": {"test_system": "GBP-1", "experiment": "GBP-1 expression in stimulated human microvascular endothelial cells, microarray", "type": "cell-based", "settings": "three donors, TNFα 10, IL-1β 10, VEGF 30, bFGF 10 ng/ml, FIG. 93A", "experimental": "(§1) Human microvascular endothelial cells from three different donors were obtained from Clonetics (Walkersville, Md.), and cultured in EGM-2 medium (Clonetics). Cells were cultured in 100 mm dishes coated with mouse type IV collagen and allowed to grow to approximately 80% confluency. The cells were then stimulated for 1, 6, or 24 hours with either medium, TNFα (10 ng/ml), or IL-1β (10 ng/ml). At each time point, mRNA was isolated, labeled and used to probe Affymetrix HG_U95Av2 and HG_U95B chips.\n(§2) For VEGF and bFGF stimulations, microvascular endothelial cells from three independent donors were obtained, cultured in 100 mm dishes coated with mouse type IV collagen and allowed to grow to 30% confluency. At this time, the media was replaced with DMEM containing 2% fetal calf serum, and the cells were cultured an additional day. The cells were stimulated for 1, 6, or 24 hours with either medium, VEGF (30 ng/ml) or bFGF (10 ng/ml). At each time point, mRNA was isolated, labeled, and used to probe Affymetrix chips as described above."}, "GBP-5 [2]": {"test_system": "GBP-5", "experiment": "GBP-5 expression in stimulated human microvascular endothelial cells, microarray", "type": "cell-based", "settings": "for donors whose cells upregulated GBP-5 mRNA: human microvascular endothelial cells from three donors; for induction of GBP-5: human microvascular endothelial cells, three donors, TNFα 10, IL-1β 10 ng/ml, FIG. 93B", "experimental": "as §1, §2"}, "GBP-1 [3]": {"test_system": "GBP-1", "experiment": "GBP-1 mRNA in stimulated synovial fibroblasts from rheumatoid arthritis patients, microarray", "type": "cell-based, human", "settings": "RA synovial fibroblasts; TNFα, IL-1α, IL-17 10 ng/ml, IL-17b-Ig 5 ng/ml; FIG. 94A", "experimental": "Synovial fibroblasts were obtained from Cell Applications, Inc. (San Diego, Calif.), and cultured for 1, 6, or 24 hours with either medium, TNFα (10 ng/ml), IL-1α (10 ng/ml, Peprotech), IL-17 (10 ng/ml, R&D Systems, Minneapolis, Minn.), or IL-17b-Ig fusion protein (5 ng/ml). The IL-17b protein was produced by fusing the full length IL-17b sequence (Shi et al., J. Biol. Chem. 275:19167-19176 (2000)) to the human IgG1 Fc region. At each time point, mRNA was isolated, labeled, and used to probe Affymetrix HG_U95Av2, HG_U95B, HG_U95C, HG_U95D, and HG_U95E chips."}, "GBP-1 [4]": {"test_system": "GBP-1", "experiment": "LPS-induced GBP-1 mRNA in THP-1 monocytes, real time PCR", "type": "cell-based, human", "settings": "THP-1, LPS 100 ng/ml, 2 hour stimulation", "experimental": "(§3) For real time PCR analyses, THP-1 cells (10^7/group) were cultured at 10^6/ml in RPMI containing 10% heat inactivated fetal calf serum, 2 mM L-glutamine with either medium, BMS-205820 (2 uM), or dexamethasone (100 nM) for 30 minutes at 37° C. in 5% CO2. LPS was added to each group (100 ng/ml), and the incubation continued for 0.5-8 hr. At the end of each time point, cells were pelleted, washed one time with 10 ml PBS, and stored at −80° C.\n(§4) Total RNA was isolated from cells using the RNeasy® Kit from Qiagen (Valencia, Calif.), including the on-the-column DNase digestion procedure. RNA quality and quantity were evaluated using UV spectrometry. Total RNA was used for first-strand cDNA synthesis using the SuperScript™ First-Strand Synthesis System for RT-PCR (Invitrogen, Carlsbad, Calif.) following the manufacturer's instructions with 50 ng of random hexamers.\n(§5) Reactions were performed in a total volume of 40 μl. The master mix contained SYBR Green I Dye, 50 mM Tris-HCl pH8.3, 75 mM KCl, DMSO, Rox reference dye, 5 mM MgCl2, 2 mM dNTP, Platinum Taq High Fidelity (1 U/reaction), and 0.5 μM of each primer. Eight microliters of diluted cDNA was used in each PCR reaction. […]\n(§6) A relative value for the initial target concentration in each reaction was determined using the TaqMan 5700 software. […]"}, "GBP-5 [5]": {"test_system": "GBP-5", "experiment": "LPS-induced GBP-5 mRNA in THP-1 monocytes, real time PCR", "type": "cell-based, human", "settings": "THP-1, LPS 100 ng/ml, 2 hour stimulation", "experimental": "as §3, §4, §5, §6"}, "GBP-1 [6]": {"test_system": "GBP-1", "experiment": "GBP-1 mRNA in resting and stimulated THP-1 monocytes, microarray", "type": "cell-based, human", "settings": "IFN-γ 100 U/ml, TNFα 10 ng/ml, LPS 100 ng/ml, FIG. 92A", "experimental": "(§7) For the microarray analyses, THP-1 cells (10^7/group) were cultured at 10^6/ml as above for 1, 6, 24, or 48 hours with either medium, TNFα (10 ng/ml), IFN-γ(100 U/ml), or LPS (100 ng/ml). At each time point, mRNA was isolated, labeled, and used to probe Affymetrix HG_U95Av2, HG_U95B, and HG_U95C chips."}, "GBP-5 [7]": {"test_system": "GBP-5", "experiment": "GBP-5 mRNA in resting and stimulated THP-1 monocytes, microarray", "type": "cell-based, human", "settings": "IFN-γ 100 U/ml, TNFα 10 ng/ml, LPS 100 ng/ml, FIG. 92B", "experimental": "as §7"}, "Fc gamma RI": {"test_system": "Fc gamma RI", "settings": "RA patients, monocytes; cited from earlier work"}, "TNF-α": {"molecular_target": "T1, TNF-α (Homo sapiens, UniProt P01375)", "T1 construct": "host or cells: RA patients (in vivo)", "T1 sequence (P01375 77-233 limits assumed)": "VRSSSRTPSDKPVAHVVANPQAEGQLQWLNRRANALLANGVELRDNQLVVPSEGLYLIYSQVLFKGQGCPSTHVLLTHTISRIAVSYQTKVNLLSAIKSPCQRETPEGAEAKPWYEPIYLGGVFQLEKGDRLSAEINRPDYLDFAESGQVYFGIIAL", "settings": "cited from earlier work"}, "mouse GBP-1": {"test_system": "mouse GBP-1", "experiment": "GBP-1 mRNA in stimulated mouse fibroblasts, real time PCR", "type": "cell-based", "settings": "2 or 8 hours, TNFα 10 ng/ml or PMA 10 ng/ml, FIG. 90A", "experimental": "(§8) Wild type 3T3 fibroblasts and immortalized fibroblast lines derived from p65 and IkBα germline knockouts were cultured in DMEM with 10% calf serum, glutamax and penicillin/streptomycin. Primary embryonic fibroblasts derived from germline knockouts of relB and p50 were cultured in DMEM with 10% fetal calf serum, glutamax and penicillin/streptomycin. The fibroblasts were plated at 5×10^5/well of a 6 well plate and cultured overnight at 37° C. in 5% CO2. Cells were stimulated for 2 or 8 hours with either medium, human TNFα (10 ng/ml) or PMA (10 ng/ml). At each time point, cells were harvested using trypsin/EDTA, washed one time with PBS, and stored at −80° C.\nas §4\n(§9) Reactions were performed in a total volume of 40 μl. […]\nas §6"}, "GBP-5 [8]": {"test_system": "GBP-5", "experiment": "GBP-5 mRNA in stimulated mouse fibroblasts, real time PCR", "type": "cell-based", "settings": "2 or 8 hours, TNFα 10 ng/ml or PMA 10 ng/ml, FIG. 90B", "experimental": "as §8, §4, §9, §6"}, "IL-15": {"molecular_target": "T2, IL-15 (Mus musculus, UniProt P48346)", "T2 construct": "host or cells: mice (collagen-induced arthritis model)", "T2 sequence (P48346 49-162)": "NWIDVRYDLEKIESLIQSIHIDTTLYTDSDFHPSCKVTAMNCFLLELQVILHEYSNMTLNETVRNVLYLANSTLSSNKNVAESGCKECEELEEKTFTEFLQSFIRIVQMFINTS", "settings": "administration to mice; cited from earlier work"}}}
{"molecule": "IL-1Ra: natural inhibitor of IL-1, recombinant human IL-1 receptor antagonist", "values": [{"measurement": "clinical symptoms and rate of progressive joint damage", "setting": "IL-1", "result": "significantly reduced"}]}
{"molecule": "IL-1β: cytokine used as stimulus of endothelial cells", "values": [{"measurement": "GBP-1 expression", "setting": "GBP-1 [1]", "result": "strongly induced"}, {"measurement": "donors whose cells upregulated GBP-5 mRNA", "setting": "GBP-5 [2]", "result": "Only one donor"}, {"measurement": "induction of GBP-5", "setting": "GBP-5 [2]", "result": "variable"}]}
{"molecule": "IL-17: cytokine used as stimulus of synovial fibroblasts (R&D Systems)", "values": [{"measurement": "GBP-1 mRNA induction", "setting": "GBP-1 [3]", "result": "not"}]}
{"molecule": "lipopolysaccharide [LPS, reference compound]", "values": [{"measurement": "steady-state mRNA level of GBP-1", "setting": "GBP-1 [4]", "result": "significantly increased"}, {"measurement": "steady-state mRNA level of GBP-5", "setting": "GBP-5 [5]", "result": "significantly increased"}, {"measurement": "steady state level of GBP-1 mRNA", "setting": "GBP-1 [6]", "result": "Much lower levels of expression were induced"}, {"measurement": "steady state level of GBP-5 mRNA", "setting": "GBP-5 [7]", "result": "Much lower levels of expression were induced"}]}
{"molecule": "C[C@]12C=CC(=O)C=C1CC[C@@H]1[C@@H]2[C@@H](O)C[C@@]2(C)[C@H]1CC[C@]2(O)C(=O)CO", "note": "[prednisolone]", "values": [{"measurement": "Fc gamma RI expression", "setting": "Fc gamma RI", "result": "induced down-regulation"}]}
{"molecule": "Etanercept", "values": [{"measurement": "number of swollen joints", "setting": "TNF-α; RA patients", "result": "significant decrease"}, {"measurement": "numbers of T cells and plasma cells in the synovium", "setting": "TNF-α; RA patients", "result": "significant decrease"}, {"measurement": "expression of VCAM-1 and IL-1 in the synovium", "setting": "TNF-α; treated patients", "result": "decrease"}]}
{"molecule": "basic FGF: growth factor used as stimulus of endothelial cells", "values": [{"measurement": "GBP-1 expression", "setting": "GBP-1 [1]", "result": "No induction"}]}
{"molecule": "TNFα", "values": [{"measurement": "steady-state level of GBP-1 mRNA", "setting": "mouse GBP-1", "result": "induced increased steady-state levels"}, {"measurement": "steady-state level of GBP-5 mRNA", "setting": "GBP-5 [8]", "result": "induced increased steady-state levels"}, {"measurement": "steady state level of GBP-1 mRNA", "setting": "GBP-1 [6]", "result": "Much lower levels of expression were induced"}, {"measurement": "steady state level of GBP-5 mRNA", "setting": "GBP-5 [7]", "result": "Much lower levels of expression were induced"}, {"measurement": "GBP-1 expression", "setting": "GBP-1 [1]", "result": "strongly induced"}, {"measurement": "donors whose cells upregulated GBP-5 mRNA", "setting": "GBP-5 [2]", "result": "two out of three"}, {"measurement": "induction of GBP-5", "setting": "GBP-5 [2]", "result": "variable"}, {"measurement": "GBP-1 mRNA induction", "setting": "GBP-1 [3]", "result": "induced at 1 and 6 hours"}]}
{"molecule": "VEGF", "values": [{"measurement": "GBP-1 expression", "setting": "GBP-1 [1]", "result": "No induction"}]}
{"molecule": "interferon-γ: cytokine used as stimulus of THP-1 monocytes", "values": [{"measurement": "steady state level of GBP-1 mRNA", "setting": "GBP-1 [6]", "result": "strongly induced"}, {"measurement": "steady state level of GBP-5 mRNA", "setting": "GBP-5 [7]", "result": "strongly induced"}]}
{"molecule": "CCCCCCCCCCCCCC(=O)O[C@@H]1[C@@H](C)[C@@]2(O)[C@@H](C=C(CO)C[C@]3(O)C(=O)C(C)=C[C@@H]23)[C@@H]2C(C)(C)[C@]12OC(C)=O", "note": "[PMA, reference compound]", "values": [{"measurement": "steady-state level of GBP-5 mRNA", "setting": "GBP-5 [8]", "result": "not"}]}
{"molecule": "IL-1a: cytokine used as stimulus of synovial fibroblasts (Peprotech) (protein, UniProt P01583 113-271, looked up) Interleukin-1 alpha: SAPFSFLSNVKYNFMRIIKYEFILNDALNQSIIRANDQYLTAAALHNLDEAVKFDMGAYKSSKDDAKITVILRISKTQLYVTAQDEDQPVLLKEMPEIPKTITGSETNLLFFWETHGTKNYFTSVAHPNLFIATKQDYWVCLAGGPPSITDFQILENQA", "values": [{"measurement": "GBP-1 mRNA induction", "setting": "GBP-1 [3]", "result": "induced at 1 and 6 hours"}]}
{"molecule": "soluble IL-15 receptor alpha chain: soluble IL-15 receptor alpha chain administered to mice (protein, UniProt Q60819 33-205, looked up, extracellular domain, soluble IL-15 receptor alpha chain administered to mice) extracellular domain: GTTCPPPVSIEHADIRVKNYSVNSRERYVCNSGFKRKAGTSTLIECVINKNTNVAHWTTPSLKCIRDPSLAHYSPVPTVVTPKVTSQPESPSPSAKEPEAFSPKSDTAMTTETAIMPGSRLTPSQTTSAGTTGTGSHKSSRAPSLAATMTLEPTASTSLRITEISPHSSKMTK", "values": [{"measurement": "collagen-induced arthritis", "setting": "IL-15", "result": "prevented"}]}
{"molecule": "IL-17b: full length IL-17b sequence fused to the human IgG1 Fc region (protein) QPRSPKSKRKGQGRPGPLAPGPHQVPLDLVSRMKPYARMEEYERNIEEMVAQLRNSSELAQRKCEVNLQLWMSNKRSLSPWGYSINHDPSRIPVDLPEARCLCLGCVNPFTMQEDRSMVSVPVFSQVPVRRRLCPPPPRTGPCRQRAVMETIAVGCTCIF", "values": [{"measurement": "GBP-1 mRNA induction", "setting": "GBP-1 [3]", "result": "not"}]}
